The values below come from patent US10670605B2, “Cysteine reactive probes and uses thereof” (The Scripps Research Institute, priority 2015, dated 2020).

Where “and” joins values, the source holds several entries; their conditions need not be identical. Identical values can stand only once.

Assay in all cases: Competitive isoTOP-ABPP, cell lysates
Holding throughout (format): binding

One test addresses MLTK C22 (Q9NYL2) (Homo sapiens, UniProt Q9NYL2). The note with it: for R value (DMSO/fragment): in vitro, MDA-MB-231; for isoTOP-ABPP ratio (reactivity profile), Q9NYL2_C22: 500 μm in-vitro ramos_231.
A further test addresses LRBA C2675 (P50851) (Homo sapiens, UniProt P50851).
The target of a further test is RRAGC C358 (Q9HB90) (Homo sapiens, UniProt Q9HB90). Particulars: for isoTOP-ABPP ratio, Q9HB90_C358: 231.
The next test concerns the target T1, USP28 C171 (Q96RU2) (Homo sapiens, UniProt Q96RU2).
T1 sequence (Q96RU2 1-1077): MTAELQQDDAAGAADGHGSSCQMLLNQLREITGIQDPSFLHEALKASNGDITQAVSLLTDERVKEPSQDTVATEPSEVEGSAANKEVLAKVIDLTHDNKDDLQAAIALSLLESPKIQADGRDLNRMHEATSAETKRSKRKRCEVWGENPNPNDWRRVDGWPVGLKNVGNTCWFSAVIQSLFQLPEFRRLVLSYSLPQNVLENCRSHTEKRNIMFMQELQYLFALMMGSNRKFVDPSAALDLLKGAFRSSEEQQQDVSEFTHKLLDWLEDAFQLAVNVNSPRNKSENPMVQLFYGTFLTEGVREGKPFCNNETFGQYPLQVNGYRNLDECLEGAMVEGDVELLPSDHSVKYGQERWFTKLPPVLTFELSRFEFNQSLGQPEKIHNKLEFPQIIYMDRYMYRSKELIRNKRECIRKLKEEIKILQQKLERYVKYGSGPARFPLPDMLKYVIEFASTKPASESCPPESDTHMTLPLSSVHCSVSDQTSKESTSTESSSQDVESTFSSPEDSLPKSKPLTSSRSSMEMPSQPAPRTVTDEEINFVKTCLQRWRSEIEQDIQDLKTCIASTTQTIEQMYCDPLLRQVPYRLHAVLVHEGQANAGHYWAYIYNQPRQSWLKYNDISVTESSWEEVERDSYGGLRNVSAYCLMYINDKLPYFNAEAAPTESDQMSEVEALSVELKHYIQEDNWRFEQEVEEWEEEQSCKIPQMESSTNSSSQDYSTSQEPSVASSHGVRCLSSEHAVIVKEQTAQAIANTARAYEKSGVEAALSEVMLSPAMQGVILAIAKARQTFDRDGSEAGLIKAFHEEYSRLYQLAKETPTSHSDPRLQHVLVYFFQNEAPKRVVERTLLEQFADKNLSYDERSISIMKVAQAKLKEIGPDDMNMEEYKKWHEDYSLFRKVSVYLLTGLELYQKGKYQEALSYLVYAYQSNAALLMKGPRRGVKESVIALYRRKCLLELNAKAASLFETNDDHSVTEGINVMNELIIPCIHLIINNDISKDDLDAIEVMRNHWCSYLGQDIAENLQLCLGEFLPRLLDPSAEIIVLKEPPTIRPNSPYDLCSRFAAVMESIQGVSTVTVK
The note with it: for isoTOP-ABPP ratio, Q96RU2_C171: 231.

The target of a further test is CASP8 C360 (Q14790) (Homo sapiens, UniProt Q14790). The note with it: for R value (DMSO/fragment): in vitro, MDA-MB-231; for isoTOP-ABPP ratio Q14790_C360: invitro.
A further test addresses PFKFB4 C159 (Q16877) (Homo sapiens, UniProt Q16877). Particulars: for isoTOP-ABPP ratio, Q16877_C159: 500 μM, invitro.

MLTK C22 (Q9NYL2), sequence (Q9NYL2 whole entry, the tested form may be a part): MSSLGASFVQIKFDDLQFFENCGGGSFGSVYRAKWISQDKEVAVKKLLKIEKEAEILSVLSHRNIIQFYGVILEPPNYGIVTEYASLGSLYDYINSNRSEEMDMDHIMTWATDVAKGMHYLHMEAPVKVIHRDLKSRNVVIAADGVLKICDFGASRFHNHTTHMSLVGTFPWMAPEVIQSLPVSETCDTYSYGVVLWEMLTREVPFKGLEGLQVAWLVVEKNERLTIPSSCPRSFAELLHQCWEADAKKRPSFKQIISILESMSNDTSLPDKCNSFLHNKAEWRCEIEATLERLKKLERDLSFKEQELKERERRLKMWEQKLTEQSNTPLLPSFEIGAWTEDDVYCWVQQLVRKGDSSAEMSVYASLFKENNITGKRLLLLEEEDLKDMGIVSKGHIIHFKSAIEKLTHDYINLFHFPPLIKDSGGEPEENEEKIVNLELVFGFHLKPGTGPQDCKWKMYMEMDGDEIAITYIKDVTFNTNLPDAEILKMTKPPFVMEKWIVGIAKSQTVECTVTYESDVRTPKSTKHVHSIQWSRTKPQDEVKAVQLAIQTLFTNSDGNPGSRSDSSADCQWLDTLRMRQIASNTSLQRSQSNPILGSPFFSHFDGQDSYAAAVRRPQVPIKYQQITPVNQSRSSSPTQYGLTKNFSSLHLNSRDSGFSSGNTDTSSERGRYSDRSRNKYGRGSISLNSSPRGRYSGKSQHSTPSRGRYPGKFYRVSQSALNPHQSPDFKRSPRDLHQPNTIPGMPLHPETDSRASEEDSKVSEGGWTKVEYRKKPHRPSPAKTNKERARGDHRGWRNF
RRAGC C358 (Q9HB90), sequence (Q9HB90 2-399 limits assumed): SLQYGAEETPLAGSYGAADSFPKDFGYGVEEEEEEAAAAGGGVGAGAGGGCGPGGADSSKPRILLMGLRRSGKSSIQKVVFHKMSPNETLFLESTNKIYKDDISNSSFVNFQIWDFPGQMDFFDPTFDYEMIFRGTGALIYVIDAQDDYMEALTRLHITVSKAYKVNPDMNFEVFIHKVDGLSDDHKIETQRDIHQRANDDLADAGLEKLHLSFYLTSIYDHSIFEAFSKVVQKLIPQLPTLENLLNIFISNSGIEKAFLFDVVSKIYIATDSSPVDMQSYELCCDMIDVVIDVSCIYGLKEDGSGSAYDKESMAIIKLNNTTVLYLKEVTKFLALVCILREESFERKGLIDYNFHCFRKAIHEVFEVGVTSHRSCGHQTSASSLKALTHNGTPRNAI
RRAGC C358 (Q9HB90), sequence (Q7L523 whole entry partner): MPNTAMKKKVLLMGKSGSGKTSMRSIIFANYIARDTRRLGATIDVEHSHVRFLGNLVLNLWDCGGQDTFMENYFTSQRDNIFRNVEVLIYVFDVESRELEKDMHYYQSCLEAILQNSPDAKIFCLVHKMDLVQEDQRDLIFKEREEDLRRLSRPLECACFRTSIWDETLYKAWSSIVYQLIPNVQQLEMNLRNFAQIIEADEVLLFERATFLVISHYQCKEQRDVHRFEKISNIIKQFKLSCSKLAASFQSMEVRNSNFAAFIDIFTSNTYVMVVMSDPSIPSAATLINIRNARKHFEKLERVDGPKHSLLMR
CASP8 C360 (Q14790), sequence (Q14790 whole entry, the tested form may be a part): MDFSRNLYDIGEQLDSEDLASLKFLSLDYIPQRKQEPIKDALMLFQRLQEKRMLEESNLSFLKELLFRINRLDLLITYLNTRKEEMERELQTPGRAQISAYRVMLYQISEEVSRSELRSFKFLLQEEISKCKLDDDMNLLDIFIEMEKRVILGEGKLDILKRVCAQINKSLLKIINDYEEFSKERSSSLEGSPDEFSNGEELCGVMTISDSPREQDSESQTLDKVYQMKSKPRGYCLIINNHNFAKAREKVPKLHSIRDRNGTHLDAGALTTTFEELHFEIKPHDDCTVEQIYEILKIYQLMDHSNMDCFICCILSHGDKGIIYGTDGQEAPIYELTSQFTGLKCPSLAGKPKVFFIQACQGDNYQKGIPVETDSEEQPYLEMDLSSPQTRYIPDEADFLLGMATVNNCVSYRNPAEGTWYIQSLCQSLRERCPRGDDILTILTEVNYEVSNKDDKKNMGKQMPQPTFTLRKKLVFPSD
LRBA C2675 (P50851), sequence (P50851 whole entry): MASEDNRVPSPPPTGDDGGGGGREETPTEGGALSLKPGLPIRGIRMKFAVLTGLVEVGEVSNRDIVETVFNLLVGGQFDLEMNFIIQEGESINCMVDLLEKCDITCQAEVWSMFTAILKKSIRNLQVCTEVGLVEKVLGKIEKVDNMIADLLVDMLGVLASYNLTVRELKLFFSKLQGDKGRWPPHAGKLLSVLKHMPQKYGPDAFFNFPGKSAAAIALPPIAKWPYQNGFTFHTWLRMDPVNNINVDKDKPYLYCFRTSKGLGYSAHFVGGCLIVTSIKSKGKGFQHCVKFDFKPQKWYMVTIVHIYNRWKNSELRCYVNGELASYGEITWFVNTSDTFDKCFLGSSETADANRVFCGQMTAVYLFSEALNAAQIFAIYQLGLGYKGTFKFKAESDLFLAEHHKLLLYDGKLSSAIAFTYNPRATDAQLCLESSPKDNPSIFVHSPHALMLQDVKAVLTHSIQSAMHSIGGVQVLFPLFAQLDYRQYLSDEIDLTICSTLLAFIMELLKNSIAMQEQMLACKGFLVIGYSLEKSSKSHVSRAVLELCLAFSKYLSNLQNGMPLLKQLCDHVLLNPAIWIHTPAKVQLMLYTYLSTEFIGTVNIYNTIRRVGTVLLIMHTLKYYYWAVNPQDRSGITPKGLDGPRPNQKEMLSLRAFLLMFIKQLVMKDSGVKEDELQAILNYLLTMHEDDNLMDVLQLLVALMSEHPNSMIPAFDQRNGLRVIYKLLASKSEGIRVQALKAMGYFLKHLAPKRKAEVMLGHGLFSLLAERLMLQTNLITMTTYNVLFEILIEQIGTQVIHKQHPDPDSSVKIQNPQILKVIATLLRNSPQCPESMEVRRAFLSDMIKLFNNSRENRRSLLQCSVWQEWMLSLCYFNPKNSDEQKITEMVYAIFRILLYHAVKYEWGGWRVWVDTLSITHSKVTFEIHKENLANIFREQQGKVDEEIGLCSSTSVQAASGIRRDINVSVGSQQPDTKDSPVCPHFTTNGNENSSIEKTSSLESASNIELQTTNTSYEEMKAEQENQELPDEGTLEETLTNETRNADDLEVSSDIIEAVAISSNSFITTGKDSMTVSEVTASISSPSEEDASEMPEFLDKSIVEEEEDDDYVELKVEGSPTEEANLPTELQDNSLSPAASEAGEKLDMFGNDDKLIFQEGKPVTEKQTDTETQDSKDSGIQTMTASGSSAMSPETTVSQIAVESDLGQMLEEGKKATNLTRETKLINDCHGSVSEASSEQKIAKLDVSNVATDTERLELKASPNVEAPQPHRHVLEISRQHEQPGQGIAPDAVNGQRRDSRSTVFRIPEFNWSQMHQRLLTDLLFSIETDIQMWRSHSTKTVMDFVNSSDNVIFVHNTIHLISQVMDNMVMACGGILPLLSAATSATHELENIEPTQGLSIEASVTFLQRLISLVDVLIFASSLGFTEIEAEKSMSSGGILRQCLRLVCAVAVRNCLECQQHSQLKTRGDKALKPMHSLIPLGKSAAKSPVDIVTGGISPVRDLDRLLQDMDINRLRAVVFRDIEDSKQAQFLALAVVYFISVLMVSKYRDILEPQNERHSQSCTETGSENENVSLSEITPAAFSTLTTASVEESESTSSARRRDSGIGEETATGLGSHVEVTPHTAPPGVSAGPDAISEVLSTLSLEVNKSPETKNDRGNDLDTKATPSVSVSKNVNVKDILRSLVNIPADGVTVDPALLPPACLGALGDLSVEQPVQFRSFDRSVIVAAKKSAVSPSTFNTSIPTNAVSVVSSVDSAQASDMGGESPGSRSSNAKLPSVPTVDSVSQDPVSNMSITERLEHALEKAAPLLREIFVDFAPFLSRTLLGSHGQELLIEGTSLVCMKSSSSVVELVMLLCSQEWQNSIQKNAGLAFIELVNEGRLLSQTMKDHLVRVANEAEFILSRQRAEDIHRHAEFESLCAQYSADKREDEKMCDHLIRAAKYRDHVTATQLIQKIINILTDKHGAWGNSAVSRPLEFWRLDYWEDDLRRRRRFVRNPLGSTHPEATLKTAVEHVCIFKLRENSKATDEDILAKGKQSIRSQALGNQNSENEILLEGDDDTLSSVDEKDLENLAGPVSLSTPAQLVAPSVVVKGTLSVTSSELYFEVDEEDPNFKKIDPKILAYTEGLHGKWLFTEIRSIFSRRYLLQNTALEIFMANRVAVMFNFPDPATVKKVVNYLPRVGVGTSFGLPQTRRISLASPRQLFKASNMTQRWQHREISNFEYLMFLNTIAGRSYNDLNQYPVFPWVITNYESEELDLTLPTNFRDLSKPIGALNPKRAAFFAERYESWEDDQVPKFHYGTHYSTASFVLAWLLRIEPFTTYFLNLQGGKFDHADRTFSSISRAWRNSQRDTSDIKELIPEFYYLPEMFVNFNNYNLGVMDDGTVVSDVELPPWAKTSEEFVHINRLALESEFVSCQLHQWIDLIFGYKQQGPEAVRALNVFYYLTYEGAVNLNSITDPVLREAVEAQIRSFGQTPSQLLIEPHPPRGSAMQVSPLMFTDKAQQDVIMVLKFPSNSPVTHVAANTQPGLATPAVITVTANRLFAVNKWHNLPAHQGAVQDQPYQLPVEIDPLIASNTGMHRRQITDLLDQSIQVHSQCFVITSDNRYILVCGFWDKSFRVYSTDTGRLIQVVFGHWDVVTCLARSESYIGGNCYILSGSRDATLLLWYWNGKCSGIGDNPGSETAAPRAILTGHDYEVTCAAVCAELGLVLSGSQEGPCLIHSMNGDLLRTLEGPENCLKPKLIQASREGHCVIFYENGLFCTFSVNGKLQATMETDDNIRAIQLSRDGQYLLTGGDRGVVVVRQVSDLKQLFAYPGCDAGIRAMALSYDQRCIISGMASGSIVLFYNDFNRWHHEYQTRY

For `O=C(CCl)NC1C(O)OC(CO)C(O)C1O` (mixture of isomers) [compound 44], the “isoTOP-ABPP reactivity profile ratio, Q9NYL2_C22” value at MLTK C22 (Q9NYL2) (500 μm, in-vitro_ramos_231) turned out to be 0.8.

With `COc1ccc2c(c1)CCCN2C(=O)CCl` [compound 2], the “R value (DMSO/fragment)” value at LRBA C2675 (P50851) (500 μM, invitro, ramos) is listed as 3.0; on RRAGC C358 (Q9HB90) (500 μM, in vitro, MDA-MB-231), 20.0; at RRAGC C358 (Q9HB90) (500 μM, invitro, ramos), 20.0; at USP28 C171 (Q96RU2) (500 μM, invitro, ramos), 1.1; on CASP8 C360 (Q14790) (500 μM), 9.8; at MLTK C22 (Q9NYL2) (500 μM) it was 20.0.

In the case of `COc1ccc(C2CC(c3cccs3)=NN2C(=O)CCl)cc1` (centres unmarked) [compound 4], the “R value (DMSO/fragment)” value on LRBA C2675 (P50851) (250 μM, in vitro, MDA-MB-231) was 1.1; on RRAGC C358 (Q9HB90) (250 μM, in vitro, MDA-MB-231), 1.5; at CASP8 C360 (Q14790) (250 μM) it was 12.3; on PFKFB4 C159 (Q16877) (250 μM, in vitro, MDA-MB-231), 1.4; at MLTK C22 (Q9NYL2) (250 μM), 20.0.

Turning to `C=CC(=O)N(c1ccccc1)c1ccc(Br)cc1` [compound 5], the “isoTOP-ABPP ratio, P50851_C2675” value at LRBA C2675 (P50851) (500 μM, invitro, ramos) was found to be 20.0. The “isoTOP-ABPP ratio Q14790_C360” value at CASP8 C360 (Q14790) (500 μM, 231) is listed as 1.0; on CASP8 C360 (Q14790) (500 μM, ramos) it was 1.3. For the same molecule, the “isoTOP-ABPP ratio, Q16877_C159” value on PFKFB4 C159 (Q16877) (ramos) came out at 20.0. In addition, the “isoTOP-ABPP ratio Q9NYL2_C22” value on MLTK C22 (Q9NYL2) (500 μM, invitro, 231) is reported as 20.0.

For the molecule `CNS(=O)(=O)C=Cc1ccc2c(ccn2Cc2ccccc2)c1` [compound 6], the “isoTOP-ABPP ratio, Q9HB90_C358” value at RRAGC C358 (Q9HB90) (500 μM, invitro) is given as 1.2. For the same molecule, the “isoTOP-ABPP ratio, Q96RU2_C171” value on USP28 C171 (Q96RU2) (500 μM, invitro) is 0.8.

On to `O=C(CCl)N1CCN(S(=O)(=O)c2ccccc2F)CC1` [compound 10], for which the “isoTOP-ABPP ratio, P50851_C2675” value on LRBA C2675 (P50851) (500 μM, invitro, ramos) turned out to be 1.3. Also, at USP28 C171 (Q96RU2) (500 μM, invitro), the “isoTOP-ABPP ratio, Q96RU2_C171” value was 1.4. In addition, the “isoTOP-ABPP ratio Q14790_C360” value at CASP8 C360 (Q14790) (500 μM, 231) is reported as 2.8; at CASP8 C360 (Q14790) (500 μM, ramos), 1.5. For the same molecule, the “isoTOP-ABPP ratio, Q16877_C159” value on PFKFB4 C159 (Q16877) (231) was 1.2.

Regarding `Cn1cc(S(=O)(=O)N2CCOCC2)cc1C(=O)NC(=O)CCl` [compound 11], the “isoTOP-ABPP ratio, P50851_C2675” value at LRBA C2675 (P50851) (500 μM, invitro, ramos) came out at 1.3. The “isoTOP-ABPP ratio, Q96RU2_C171” value on USP28 C171 (Q96RU2) (500 μM, invitro) was determined as 20.0. Moreover, the “isoTOP-ABPP ratio Q14790_C360” value at CASP8 C360 (Q14790) (500 μM, 231) was 20.0; at CASP8 C360 (Q14790) (500 μM, ramos), 20.0. Besides, the “isoTOP-ABPP ratio, Q16877_C159” value at PFKFB4 C159 (Q16877) (ramos) turned out to be 0.6.

Regarding `O=C(CCl)NC(=O)NC12CC3CC(CC(C3)C1)C2` [compound 12], on LRBA C2675 (P50851) (500 μM, invitro, ramos), the “isoTOP-ABPP ratio, P50851_C2675” value is 1.5.

Consider `C=CC(=O)N(Cc1cccnc1)c1ccc(Oc2ccccc2)c(C(F)(F)F)c1` [compound 15], for which the “isoTOP-ABPP ratio (reactivity profile), P50851_C2675” value at LRBA C2675 (P50851) (500 μm in-vitro ramos) was 1.6. Besides, the “isoTOP-ABPP ratio, Q9HB90_C358” value on RRAGC C358 (Q9HB90) (500 μM, invitro) was 1.1.

For `O=C(CCl)N1CCC(C(O)(c2ccccc2)c2ccccc2)CC1` [compound 20], the “isoTOP-ABPP ratio (reactivity profile), Q96RU2_C171” value on USP28 C171 (Q96RU2) (500 μm in-vitro ramos) is recorded as 2.4. Also, the figures for the “isoTOP-ABPP ratio (reactivity profile), Q14790_C360” value on CASP8 C360 (Q14790) (500 μm in-vitro ramos) and at CASP8 C360 (Q14790) (500 μm in-vitro ramos_231) were 1.5 and 1.9, respectively. Further, the “isoTOP-ABPP ratio (reactivity profile), Q16877_C159” value at PFKFB4 C159 (Q16877) (500 μm in-vitro ramos) is recorded as 1.0. The “isoTOP-ABPP ratio (reactivity profile), Q9NYL2_C22” value on MLTK C22 (Q9NYL2) came out at 20.0.

Turning to `O=C(CCl)N1CCOCC1` [compound 22], the “isoTOP-ABPP ratio (reactivity profile), P50851_C2675” value on LRBA C2675 (P50851) (500 μm in-vitro ramos) and at LRBA C2675 (P50851) (500 μm in-vitro ramos_231) was 1.1 throughout. The “isoTOP-ABPP ratio (reactivity profile), Q9HB90_C358” value on RRAGC C358 (Q9HB90) (500 μm in-vitro ramos_231) is recorded as 1.7. For the same molecule, the “isoTOP-ABPP ratio (reactivity profile), Q9NYL2_C22” value at MLTK C22 (Q9NYL2) turned out to be 1.0.

In the case of `CC(Br)C(=O)Nc1cc(C(F)(F)F)cc(C(F)(F)F)c1` (centres unmarked) [compound 24], the “isoTOP-ABPP ratio (reactivity profile), P50851_C2675” value at LRBA C2675 (P50851) (500 μm in-vitro ramos) was 1.0. Besides, the “isoTOP-ABPP ratio (reactivity profile), Q9HB90_C358” value on RRAGC C358 (Q9HB90) (500 μm in-vitro ramos) turned out to be 0.9. Besides, the “isoTOP-ABPP ratio (reactivity profile), Q14790_C360” value on CASP8 C360 (Q14790) (500 μm in-vitro ramos) came out at 1.4.

As to `CC(Cl)C(=O)Nc1cc(C(F)(F)F)cc(C(F)(F)F)c1` (centres unmarked) [compound 25], the “isoTOP-ABPP ratio (reactivity profile), Q9HB90_C358” value on RRAGC C358 (Q9HB90) (500 μm in-vitro ramos_231) is 0.9. Also, the “isoTOP-ABPP ratio (reactivity profile), Q14790_C360” value at CASP8 C360 (Q14790) (500 μm in-vitro ramos_231) was found to be 1.0. For the same molecule, at MLTK C22 (Q9NYL2), the “isoTOP-ABPP ratio (reactivity profile), Q9NYL2_C22” value was 0.8.

For the molecule `O=C(/C=C/c1ccccc1)Nc1cc(C(F)(F)F)cc(C(F)(F)F)c1` [compound 26], on LRBA C2675 (P50851) (500 μm in-vitro ramos), the “isoTOP-ABPP ratio (reactivity profile), P50851_C2675” value stood at 0.9.

Regarding `CC(C)CCOCCNC(=O)CCl` [compound 27], the “isoTOP-ABPP ratio (reactivity profile), Q9HB90_C358” value at RRAGC C358 (Q9HB90) (500 μm in-vitro ramos_231) came out at 0.3. Further, the “isoTOP-ABPP ratio (reactivity profile), Q96RU2_C171” value on USP28 C171 (Q96RU2) (500 μm in-vitro ramos_231) is 0.9 and 1.2. The “isoTOP-ABPP ratio (reactivity profile), Q14790_C360” value at CASP8 C360 (Q14790) (500 μm in-vitro ramos) was determined as 1.2; at CASP8 C360 (Q14790) (500 μm in-vitro ramos_231) it was 0.8. For the same molecule, the “isoTOP-ABPP ratio (reactivity profile), Q9NYL2_C22” value on MLTK C22 (Q9NYL2) stood at 1.1.
